Laboratory results taken from patent US20240269291A1, “Transcutol-Polyol-Active Agent Ternary Complex, Pharmaceutical Composition for Topical Use Comprising Same, Method for Obtaining Same and Use Thereof in Different Pathologies” (FUNDACIÓN GAIKER, priority 2021, published 2024).

Legend:
[1] = test system: sick people; assay: Application of the cream on sick people; settings: in vivo
Description: In the numerous tests that were carried out on sick people, it has been observed that the introduction of a correct concentration of polyphenols (with “correct” being understood as the fact that there are 200 mg of the polyphenol in each 5 g application of pharmaceutical composition) in a solution for topical use (preferably a cream) has very beneficial effects in treating at least the following pathologies: subcutaneous inflammations such as fasciitis and fasciosis, tendon inflammation or irritation (tendonitis), carpal tunnel inflammation, varicose vein reduction, joint inflammation and blows and bruises.

[2] = printed as negative log P; cited from earlier work
[3] = safety index of 100 times, cited from earlier work

SMILES | crossing of the blood-brain barrier [1] | log P [2] | recommended limit via the dermal route ([3]; dermal route) [mg/kg] | recommended limit via the oral route ([3]; oral route) [mg/kg]
C[C@@H]1O[C@@H](OC[C@H]2O[C@@H](Oc3c(-c4ccc(O)c(O)c4)oc4cc(O)cc(O)c4c3=O)[C@H](O)[C@@H](O)[C@@H]2O)[C@H](O)[C@H](O)[C@H]1O [rutin] | able to cross the blood-brain barrier | – | – | –
CCOCCOCCO [transcutol, 2-(2-Ethoxyethoxy) ethanol] | – | ~0.5 | 20 | 10
